Experimental data published in article PMC10574761, “Novel 1,2,3-Triazole-Containing Quinoline–Benzimidazole Hybrids: Synthesis, Antiproliferative Activity, In Silico ADME Predictions, and Docking” (Molecules, 2023).

Tests used:
[1] = test system: MRC-5 (human fetal lung fibroblasts, non-tumor); test: MTT proliferation assay, MRC-5; format: cell-based; conditions: MRC5, 72 h treatment
Method: (§1) The effect of the new synthesized compounds was tested on five human tumor cell lines, HeLa (human cervical adenocarcinoma; from ATCC), CaCo-2 (human colorectal adenocarcinoma), HL-60 (acute promyelocytic leukemia), HuT78 (T-cell lymphoma) and THP-1 (acute monocytic leukemia), and on one non-tumor cell line, MRC-5 (human fetal lung fibroblasts). The MRC-5 cells were used between 24 and 26 passages. The cells were cultured in two different types of media: DMEM (Gibco, EU) and RPMI 1640 (Gibco, EU). Both media were supplemented with 2 mM glutamine, fetal bovine serum (10%; heat inactivated) and antibiotics (100 U penicillin and 0.1 mg streptomycin). RPMI 1640 was additionally supplemented with 10 mM HEPES and 1 mM sodium pyruvate. The cells growing in a monolayer were cultured in DMEM, while the cells growing in suspension were cultured in RPMI 1640. The cells were grown in humidified atmosphere under the conditions of 37 °C/5% CO2 gas in the CO2 incubator (IGO 150 CELLlife^TM, JOUAN, Thermo Fisher Scientific, Waltham, MA, USA).
(§2) Growth-inhibitory activity was assessed using a slightly modified procedure based on the National Cancer Institute’s protocol. Briefly, the cells were seeded in 96-well microtiter plates and incubated for 24 h. They were then treated with 10^−7 to 10^−4 M concentrations of the tested compounds for an additional 72 h. After the treatment period, the effects of the tested compounds on the growth rate of the cells were examined using the MTT assay. Absorbance was measured at 595 nm using a microplate reader. […] The selectivity index was calculated according to the following formula: SI=IC50 value of normal cell line/IC50 value of cancer cell line
(§3) The effect of each concentration was analyzed by plotting the logarithm of the concentration of the evaluated compound against the corresponding percentage inhibition value using least squares.

[2] = test system: HeLa (human cervical adenocarcinoma); test: MTT proliferation assay, HeLa; format: cell-based; conditions: 72 h treatment
Method: as §1, §2, §3

[3] = test system: CaCo-2 (human colorectal adenocarcinoma); test: MTT proliferation assay, CaCo-2; format: cell-based; conditions: 72 h treatment
Method: as §1, §2, §3

[4] = test system: THP-1 (acute monocytic leukemia); test: MTT proliferation assay, THP-1; format: cell-based, human; conditions: for IC50: Homo sapiens, THP-1, 72 h treatment, MTT
Method: as §1, §2, §3

Hut78 (T-cell lymphoma) = test: MTT proliferation assay, HuT78; format: cell-based, human; conditions: for IC50: Homo sapiens, HuT78, 72 h treatment, MTT
Method: as §1, §2, §3

[5] = test system: HL-60 (acute promyelocytic leukemia); test: MTT proliferation assay, HL-60; format: cell-based; conditions: Homo sapiens, 72 h treatment
Method: as §1, §2, §3

HuT78 cells = test: Cell cycle analysis by flow cytometry (PI staining); format: cell-based, human; conditions: 24 h, p < 0.05
Method: The cells were exposed to the compounds for 24 h, collected, washed with PBS, fixed with 70% ethanol and stored at −20 °C until analysis. On the day of analysis, the cell pellets were washed twice with PBS, resuspended in 1 mg/mL PI and 0.2 mg/mL RNase A and left in a dark/cold atmosphere for 30 min. The stained cells were analyzed using FACSCalibur (Becton Dickinson, Franklin Lakes, NJ, USA) flow cytometer. Tests were performed in duplicate and repeated twice. FlowJo software, version 10.2., was adapted for the analysis of DNA histograms.
[…] 13.5 (TIBCO Software Inc., Tulsa, USA) was used for the statistical analysis of the results. Student’s t test was used for data analysis. Differences were considered statistically significant at p < 0.05.

[6] = SI = IC50 of normal cell line (MRC-5) / IC50 of cancer cell line

Row | SMILES | IC50 [1] | IC50 [2] | IC50 [3] | IC50 [4] | selectivity index (SI) for THP-1 cells [4, 6] | IC50 (Hut78 (T-cell lymphoma)) | selectivity index (SI) for HuT78 cells (Hut78 (T-cell lymphoma); [6]) | IC50 [5] | enrichment of the S fraction compared to control cells (HuT78 cells; HuT-78, 0.5 µM) | melting point | increase in the aggregation of cells in the subG0/G1 phase (HuT78 cells; HuT-78, 5 µM) | increase of the proportion of cells in subG0/G1 phase compared to untreated cells (HuT78 cells; HuT-78, 5 µM)
1 | COc1ccc2[nH]c(-c3ccc(OCc4cn(-c5ccnc6cc(Cl)ccc56)nn4)cc3)nc2c1 [Compound 9c, 7-chloro-4-(4-{[4-(5-methoxy-1H--benzo[d]imidazol-2-yl)phenoxy]methyl}-1H-1,2,3-triazol-1-yl)quinoline] | 2.71 µM | 7.53 µM | 8.3 µM | 0.18 µM | 15 | 0.2 µM | 13.55 | 1.02 µM | 31% | 85 to 86 °C | – | –
2 | CCCNC(=N)c1ccc2[nH]c(-c3ccc(OCc4cn(-c5ccnc6cc(Cl)ccc56)nn4)c(Br)c3)nc2c1.Cl.Cl.Cl [Compound 10e, 2-(3-bromo-4-{[1-(7-chloroquinolin-4-yl)-1H-1,2,3-triazol-4-yl]methoxy}phenyl)-N-propyl-1H-benzo[d]imidazol-5-carboximidamide trihydrochloride] | > 100 µM | > 100 µM | > 100 µM | > 100 µM | – | 9.68 µM | – | 93.2 µM | – | – | more than threefold | –
3 | CCCNC(=N)c1ccc2[nH]c(-c3ccc(OCc4cn(CCNc5ccnc6cc(Cl)ccc56)nn4)cc3)nc2c1.Cl.Cl.Cl [Compound 14e, 2-{4-[(1-{2-[(7-chloroquinolin-4-yl)amino]ethyl}-1H-1,2,3-triazol-4-yl)methoxy]phenyl}-N-propyl-1H-benzo[d]imidazol-5-carboximidamide trihydrochloride] | > 100 µM | > 100 µM | > 100 µM | > 100 µM | – | 10.9 µM | – | > 100 µM | – | 209 to 211 °C | – | 68%
4 | CCCNC(=N)c1ccc2[nH]c(-c3ccc(OCc4cn(CCNc5ccnc6cc(Cl)ccc56)nn4)c(Br)c3)nc2c1.Cl.Cl.Cl [Compound 15e, 2-{3-bromo-4-[(1-{2-[(7-chloroquinolin-4-yl)amino]ethyl}-1H-1,2,3-triazol-4-yl)methoxy]phenyl}-N-propyl-1H-benzo[d]imidazol-5-carboximidamide trihydrochloride] | > 100 µM | > 100 µM | > 100 µM | > 100 µM | – | 7.83 µM | – | > 100 µM | – | 169 to 171 °C | – | 36%
